From ChEMBL document CHEMBL1122577, “Cardiac glycosides. 1. A systematic study of digitoxigenin D-glycosides” (J Med Chem, 1984)

Experiment: Inhibitory activity against Hog kidney Na+, K+ -Dependent ATPase
Design: species or system Sus scrofa
Conditions: read-out: I50

Row | SMILES | IC50 [nM]
1 | C[C@]12CC[C@H](O)C[C@H]1CC[C@@H]1[C@@H]2CC[C@]2(C)[C@@H](C3=CC(=O)OC3)CC[C@]12O [DIGITOXIGENIN] | 117
2 | C[C@]12CC[C@H](O[C@H]3C[C@H](O)[C@H](O)[C@H](CO)O3)C[C@@H]1CC[C@@H]1[C@@H]2CC[C@]2(C)[C@@H](C3=CC(=O)OC3)CC[C@@]12O | 10.7
3 | C[C@]12CC[C@H](O[C@@H]3C[C@H](O)[C@H](O)[C@H](CO)O3)C[C@@H]1CC[C@@H]1[C@@H]2CC[C@]2(C)[C@@H](C3=CC(=O)OC3)CC[C@@]12O | 93.3
4 | C[C@]12CC[C@H](O[C@@H]3O[C@@H](CO)[C@H](O)[C@H](O)[C@@H]3O)CC1CC[C@@H]1[C@@H]2CC[C@]2(C)[C@@H](C3=CC(=O)OC3)CC[C@@]12O (stereo partly drawn) | 64.5
5 | C[C@]12CC[C@H](O[C@@H]3O[C@@H](CO)[C@@H](O)[C@H](O)[C@@H]3O)CC1CC[C@@H]1[C@@H]2CC[C@]2(C)[C@@H](C3=CC(=O)OC3)CC[C@@]12O (stereo partly drawn) | 11.7
6 | C[C@@H]1O[C@@H](O[C@H]2CC[C@@]3(C)[C@@H](CC[C@@H]4[C@@H]3CC[C@]3(C)[C@@H](C5=CC(=O)OC5)CC[C@@]43O)C2)C[C@H](O)[C@@H]1O | 7.04
7 | C[C@@H]1O[C@@H](O[C@H]2CC[C@@]3(C)[C@@H](CC[C@@H]4[C@@H]3CC[C@]3(C)[C@@H](C5=CC(=O)OC5)CC[C@@]43O)C2)C[C@@H]2OC(C)(C)O[C@H]12 | 41.8
8 | C[C@]12CC[C@H](O[C@@H]3C[C@@H](O)[C@H](O)[C@H](CO)O3)C[C@@H]1CC[C@@H]1[C@@H]2CC[C@]2(C)[C@@H](C3=CC(=O)OC3)CC[C@@]12O | 28.2
